Results from US20260224584A1 (priority 2023, published 2026).
Where a name gives a salt, the structure may show the parent alone.

system: Human WB (90%) CD69; test: Human WB (90%) CD69; type: cell-based; conditions: read-out: Human WB (90%) CD69 IC50 (nM); human whole blood (90%), CD69 readout

SMILES	IC50 [nM]
Cc1cc(C)nc(Nc2cc(-c3ccc(N4CCN(C(C)C)CC4)cc3)cc3c2ncn3C)c1 [Example 40, N-(4,6-dimethylpyridin-2-yl)-6-(4-(4-isopropylpiperazin-1-yl)phenyl)-1-methyl-1H-benzo[d]imidazol-4-amine]	565
Cc1cc(C)nc(Nc2cc(-c3ccc(N4CCN(C(C)C)CC4)cc3)cc3c2nc(C2COC2)n3C)c1 [Example 44, N-(4,6-dimethylpyridin-2-yl)-6-(4-(4-isopropylpiperazin-1-yl)phenyl)-1-methyl-2-(oxetan-3-yl)-1H-benzo[d]imidazol-4-amine]	282
Cc1cc(C)nc(Nc2cc(-c3ccc(N4CCN(C(C)C)CC4)cc3)cc3c2nc(-c2ccc(S(C)(=O)=O)cc2)n3C)c1 [Example 29, N-(4,6-dimethylpyridin-2-yl)-6-(4-(4-isopropylpiperazin-1-yl)phenyl)-1-methyl-2-(4-(methylsulfonyl)phenyl)-1H-benzo[d]imidazol-4-amine]	340
CC(C)N1CCN(c2ccc(-c3cc(NCCN4CCC(F)(F)CC4)c4nc(-c5ccc(S(C)(=O)=O)cc5)n(C)c4c3)cc2)CC1 [Example 35, N-(2-(4,4-difluoropiperidin-1-yl)ethyl)-6-(4-(4-isopropylpiperazin-1-yl)phenyl)-1-methyl-2-(4-(methylsulfonyl)phenyl)-1H-benzo[d]imidazol-4-amine]	571
Cc1nc2c(NC3CCS(=O)(=O)CC3)cc(-c3ccc(N4CCN(C(C)C)CC4)cc3)cc2n1C [Example 9, 4-((6-(4-(4-isopropylpiperazin-1-yl)phenyl)-1,2-dimethyl-1H-benzo[d]imidazol-4-yl)amino)tetrahydro-2H-thiopyran 1,1-dioxide]	1120
Cc1ccc(Nc2cc(-c3ccc(N4CCN(C(C)C)CC4)cc3)cc3c2nc(C)n3C)nc1 [Example 22, 6-(4-(4-isopropylpiperazin-1-yl)phenyl)-1,2-dimethyl-N-(5-methylpyridin-2-yl)-1H-benzo[d]imidazol-4-amine]	762
Cc1cc(C)nc(Nc2cc(-c3ccc(N4CCN(C(C)C)CC4)cc3)cc3c2nc(-c2cnoc2)n3C)c1 [Example 49, N-(4,6-dimethylpyridin-2-yl)-6-(4-(4-isopropylpiperazin-1-yl)phenyl)-2-(isoxazol-4-yl)-1-methyl-1H-benzo[d]imidazol-4-amine, TFA]	1090
CC(C)N1CCN(c2ccc(-c3cc(NC4CCN(S(C)(=O)=O)CC4)c4nc(N(C)C)n(C)c4c3)cc2)CC1 [Example 54, 6-(4-(4-isopropylpiperazin-1-yl)phenyl)-N2,N2,1-trimethyl-N4-(1-(methylsulfonyl)piperidin-4-yl)-1H-benzo[d]imidazole-2,4-diamine]	673
Cc1cc(C)nc(Nc2cc(-c3ccc(N4CCN(C(C)C)CC4)cc3)cc3c2nc(C2CC2)n3C)c1 [Example 33, 2-cyclopropyl-N-(4,6-dimethylpyridin-2-yl)-6-(4-(4-isopropylpiperazin-1-yl)phenyl)-1-methyl-1H-benzo[d]imidazol-4-amine, TFA]	245
Cc1nc2c(NCCN3CCOCC3)cc(-c3ccc(N4CCN(C(C)C)CC4)cc3)cc2n1C [Example 4, 6-(4-(4-isopropylpiperazin-1-yl)phenyl)-1,2-dimethyl-N-(2-morpholinoethyl)-1H-benzo[d]imidazol-4-amine]	106
Cc1cc(C)nc(Nc2cc(-c3ccc(N4CCN(C(C)C)CC4)cc3)cc3c2nc(C2CCOCC2)n3C)c1 [Example 48, N-(4,6-dimethylpyridin-2-yl)-6-(4-(4-isopropylpiperazin-1-yl)phenyl)-1-methyl-2-(tetrahydro-2H-pyran-4-yl)-1H-benzo[d]imidazol-4-amine, TFA]	109
Cc1nc2c(NCc3ccc(CN4CCOCC4)cc3)cc(-c3ccc(N4CCN(C(C)C)CC4)cc3)cc2n1C [Example 14, 6-(4-(4-isopropylpiperazin-1-yl)phenyl)-1,2-dimethyl-N-(4-(morpholinomethyl)benzyl)-1H-benzo[d]imidazol-4-amine]	31
CC(C)N1CCN(c2ccc(-c3cc(NCCN4CCCC4)c4nc(-c5ccc(S(C)(=O)=O)cc5)n(C)c4c3)cc2)CC1 [Example 3, 6-(4-(4-isopropylpiperazin-1-yl)phenyl)-1-methyl-2-(4-(methylsulfonyl)phenyl)-N-(2-(pyrrolidin-1-yl)ethyl)-1H-benzo[d]imidazol-4-amine]	87
CC(C)N1CCN(c2ccc(-c3cc(NCCN4CCOCC4)c4nc(C5CCN(S(C)(=O)=O)CC5)n(C)c4c3)cc2)CC1 [Example 30, 6-(4-(4-isopropylpiperazin-1-yl)phenyl)-1-methyl-2-(1-(methylsulfonyl)piperidin-4-yl)-N-(2-morpholinoethyl)-1H-benzo[d]imidazol-4-amine]	374
Cc1cc(C)nc(Nc2cc(-c3ccc(N4CCN(C(C)C)CC4)cc3)cc3c2nc(-c2cc[nH]n2)n3C)c1 [Example 53, N-(4,6-dimethylpyridin-2-yl)-6-(4-(4-isopropylpiperazin-1-yl)phenyl)-1-methyl-2-(1H-pyrazol-3-yl)-1H-benzo[d]imidazol-4-amine, TFA]	75
CC(C)N1CCN(c2ccc(-c3cc(NCCN4CCOCC4)c4nc(C5COC5)n(C)c4c3)cc2)CC1 [Example 45, 6-(4-(4-isopropylpiperazin-1-yl)phenyl)-1-methyl-N-(2-morpholinoethyl)-2-(oxetan-3-yl)-1H-benzo[d]imidazol-4-amine]	473
Cc1nc2c(N3CCN(C4COC4)CC3)cc(-c3ccc(N4CCN(C(C)C)CC4)cc3)cc2n1C [Example 58, 6-(4-(4-isopropylpiperazin-1-yl)phenyl)-1,2-dimethyl-4-(4-(oxetan-3-yl)piperazin-1-yl)-1H-benzo[d]imidazole]	860
Cc1cc(C)nc(Nc2cc(-c3ccc(N4CCN(C(C)C)CC4)cc3)cc3c2nc(-c2cc[nH]c2)n3C)c1 [Example 51, N-(4,6-dimethylpyridin-2-yl)-6-(4-(4-isopropylpiperazin-1-yl)phenyl)-1-methyl-2-(1H-pyrrol-3-yl)-1H-benzo[d]imidazol-4-amine]	61
CC(C)N1CCN(c2ccc(-c3cc(NCCN4CCOCC4)c4nc(C5CC5)n(C)c4c3)cc2)CC1 [Example 31, 2-cyclopropyl-6-(4-(4-isopropylpiperazin-1-yl)phenyl)-1-methyl-N-(2-morpholinoethyl)-1H-benzo[d]imidazol-4-amine, 2 TFA]	302
Cc1nc2c(N3CCC(CNC4CCOCC4)CC3)cc(-c3ccc(N4CCN(C(C)C)CC4)cc3)cc2n1C [Example 61, N-((1-(6-(4-(4-isopropylpiperazin-1-yl)phenyl)-1,2-dimethyl-1H-benzo[d]imidazol-4-yl)piperidin-4-yl)methyl)tetrahydro-2H-pyran-4-amine]	156
Cc1nc2c(Nc3ccc(N4CCOCC4)cn3)cc(-c3ccc(N4CCN(C(C)C)CC4)cc3)cc2n1C [Example 16, 6-(4-(4-isopropylpiperazin-1-yl)phenyl)-1,2-dimethyl-N-(5-morpholinopyridin-2-yl)-1H-benzo[d]imidazol-4-amine]	207
COc1ccc(-c2nc3c(N4CCN(C5COC5)CC4)cc(-c4ccc(N5CCN(C(C)C)CC5)cc4)cc3n2C)cc1OC [Example 59, 2-(3,4-dimethoxyphenyl)-6-(4-(4-isopropylpiperazin-1-yl)phenyl)-1-methyl-4-(4-(oxetan-3-yl)piperazin-1-yl)-1H-benzo[d]imidazole]	651
COc1ccc(-c2nc3c(NCCN4CCOCC4)cc(-c4ccc(N5CCN(C(C)C)CC5)cc4)cc3n2C)cc1OC [Example 5, 2-(3,4-dimethoxyphenyl)-6-(4-(4-isopropylpiperazin-1-yl)phenyl)-1-methyl-N-(2-morpholinoethyl)-1H-benzo[d]imidazol-4-amine]	94
CC(C)N1CCN(c2ccc(-c3cc(NCc4ccc(CN5CCOCC5)cc4)c4nc(-c5ccc(S(C)(=O)=O)cc5)n(C)c4c3)cc2)CC1 [Example 36, 6-(4-(4-isopropylpiperazin-1-yl)phenyl)-1-methyl-2-(4-(methylsulfonyl)phenyl)-N-(4-(morpholinomethyl)benzyl)-1H-benzo[d]imidazol-4-amine]	221
Cc1cc(C)nc(Nc2cc(-c3ccc(N4CCN(C(C)C)CC4)cc3)cc3c2nc(C)n3C)c1 [Example 6, N-(4,6-dimethylpyridin-2-yl)-6-(4-(4-isopropylpiperazin-1-yl)phenyl)-1,2-dimethyl-1H-benzo[d]imidazol-4-amine]	25
Cc1cc(C)nc(Nc2cc(-c3ccc(N4CCN(C(C)C)CC4)cc3)cc3c2nc(C2CCN(S(C)(=O)=O)CC2)n3C)c1 [Example 27, N-(4,6-dimethylpyridin-2-yl)-6-(4-(4-isopropylpiperazin-1-yl)phenyl)-1-methyl-2-(1-(methylsulfonyl)piperidin-4-yl)-1H-benzo[d]imidazol-4-amine]	284
CC(C)N1CCN(c2ccc(-c3cc(NCCN4CCOCC4)c4nc(-c5ccc(S(C)(=O)=O)cc5)n(C)c4c3)cc2)CC1 [Example 63, 6-(4-(4-isopropylpiperazin-1-yl)phenyl)-1-methyl-2-(4-(methylsulfonyl)phenyl)-N-(2-morpholinoethyl)-1H-benzo[d]imidazol-4-amine]	121
CC(C)N1CCN(c2ccc(-c3cc(NCCN4CCOCC4)c4nc(C5CCC5)n(C)c4c3)cc2)CC1 [Example 32, 2-cyclobutyl-6-(4-(4-isopropylpiperazin-1-yl)phenyl)-1-methyl-N-(2-morpholinoethyl)-1H-benzo[d]imidazol-4-amine, 2 TFA]	79
Cc1cc(C)nc(Nc2cc(-c3ccc(N4CCN(C5CCOCC5)CC4)cc3)cc3c2nc(-c2ccc(S(C)(=O)=O)cc2)n3C)c1 [Example 38, N-(4,6-dimethylpyridin-2-yl)-1-methyl-2-(4-(methylsulfonyl)phenyl)-6-(4-(4-(tetrahydro-2H-pyran-4-yl)piperazin-1-yl)phenyl)-1H-benzo[d]imidazol-4-amine]	899
Cc1cc(C)nc(Nc2cc(-c3ccc(N4CCN(C(C)C)CC4)cc3)cc3c2nc(-c2ccco2)n3C)c1 [Example 52, N-(4,6-dimethylpyridin-2-yl)-2-(furan-2-yl)-6-(4-(4-isopropylpiperazin-1-yl)phenyl)-1-methyl-1H-benzo[d]imidazol-4-amine, TFA]	62
